According to ChEMBL document CHEMBL4340566, “Development of indazole mineralocorticoid receptor antagonists and investigation into their selective late-stage functionalization” (Bioorg Med Chem Lett, 2019):
pIC50: −log10 of the molar value.

Experiments:
[1] = target: T1, Mineralocorticoid receptor (Homo sapiens, UniProt P08235); test: Antagonist activity at mineralocorticoid receptor (unknown origin)
T1 sequence (P08235 whole entry): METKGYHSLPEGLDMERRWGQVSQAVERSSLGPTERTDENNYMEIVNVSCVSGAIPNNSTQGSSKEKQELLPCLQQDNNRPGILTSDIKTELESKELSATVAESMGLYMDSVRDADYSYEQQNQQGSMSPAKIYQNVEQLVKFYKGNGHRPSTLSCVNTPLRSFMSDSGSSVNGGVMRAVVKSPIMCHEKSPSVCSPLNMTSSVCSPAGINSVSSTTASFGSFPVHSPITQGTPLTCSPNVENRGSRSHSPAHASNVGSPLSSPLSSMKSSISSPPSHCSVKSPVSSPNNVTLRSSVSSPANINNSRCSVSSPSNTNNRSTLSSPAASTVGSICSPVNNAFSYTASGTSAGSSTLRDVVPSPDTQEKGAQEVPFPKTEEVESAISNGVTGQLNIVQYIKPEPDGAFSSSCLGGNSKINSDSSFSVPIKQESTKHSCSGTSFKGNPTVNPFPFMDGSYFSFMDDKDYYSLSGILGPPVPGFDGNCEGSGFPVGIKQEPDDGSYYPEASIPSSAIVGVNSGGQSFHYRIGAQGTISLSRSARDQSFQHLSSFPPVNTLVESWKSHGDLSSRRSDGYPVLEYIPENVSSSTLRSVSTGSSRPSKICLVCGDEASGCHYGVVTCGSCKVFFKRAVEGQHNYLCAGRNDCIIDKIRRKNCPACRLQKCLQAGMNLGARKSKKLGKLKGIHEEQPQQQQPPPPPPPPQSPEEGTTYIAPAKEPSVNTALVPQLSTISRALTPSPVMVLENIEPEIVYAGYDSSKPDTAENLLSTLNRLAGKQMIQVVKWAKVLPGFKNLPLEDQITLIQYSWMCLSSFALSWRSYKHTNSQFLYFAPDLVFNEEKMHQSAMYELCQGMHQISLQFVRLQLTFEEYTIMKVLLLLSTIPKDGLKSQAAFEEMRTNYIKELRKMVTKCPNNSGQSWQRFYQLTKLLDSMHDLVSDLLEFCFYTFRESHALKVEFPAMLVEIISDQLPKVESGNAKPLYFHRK

Glucocorticoid receptor = target: T2, Glucocorticoid receptor (Homo sapiens, UniProt P04150); test: Binding affinity to glucocorticoid receptor (unknown origin) by gel filtration assay
T2 sequence (P04150 whole entry): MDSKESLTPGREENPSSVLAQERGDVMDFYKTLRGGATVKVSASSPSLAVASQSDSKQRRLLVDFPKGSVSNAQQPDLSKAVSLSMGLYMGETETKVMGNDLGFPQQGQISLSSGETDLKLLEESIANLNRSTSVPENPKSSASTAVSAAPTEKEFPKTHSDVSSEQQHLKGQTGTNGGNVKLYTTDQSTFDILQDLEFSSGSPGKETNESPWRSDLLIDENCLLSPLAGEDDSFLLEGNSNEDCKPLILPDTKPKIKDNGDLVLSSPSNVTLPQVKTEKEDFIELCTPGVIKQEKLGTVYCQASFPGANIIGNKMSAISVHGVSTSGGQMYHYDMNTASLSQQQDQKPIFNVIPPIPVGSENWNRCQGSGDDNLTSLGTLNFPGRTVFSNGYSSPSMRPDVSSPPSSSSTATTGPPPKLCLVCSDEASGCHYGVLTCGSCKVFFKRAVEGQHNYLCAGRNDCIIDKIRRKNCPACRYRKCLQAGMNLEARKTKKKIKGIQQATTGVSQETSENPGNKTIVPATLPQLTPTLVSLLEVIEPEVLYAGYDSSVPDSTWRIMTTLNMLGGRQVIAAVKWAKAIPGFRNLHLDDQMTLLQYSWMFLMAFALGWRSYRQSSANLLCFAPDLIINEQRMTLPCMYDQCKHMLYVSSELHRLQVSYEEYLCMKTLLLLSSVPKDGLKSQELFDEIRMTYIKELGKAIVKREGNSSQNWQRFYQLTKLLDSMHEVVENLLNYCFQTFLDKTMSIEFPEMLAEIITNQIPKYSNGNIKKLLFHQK

Homo sapiens = species on record: Homo sapiens; test: Selectivity ratio of IC50 for glucocorticoid receptor (unknown origin) to IC50 for mineralocorticoid receptor (unknown origin)
[2] = Clearance in Sprague-Dawley rat at 2 mg/kg, iv or 10 mg/kg, po; format: ADME, organism-based; settings: in vivo
[3] = Half-life in Sprague-Dawley rat at 2 mg/kg, iv or 10 mg/kg, po; format: ADME, organism-based; settings: in vivo
[4] = Oral bioavailability in Sprague-Dawley rat at 10 mg/kg; format: ADME, organism-based; settings: in vivo
[5] = Half-life in Wistar Han rat at 1 mg/kg, iv or 2 mg/kg, po; format: ADME, organism-based; settings: in vivo; for half-life: Wistar Han
[6] = Oral bioavailability in Wistar Han rat at 2 mg/kg; format: ADME, organism-based; settings: in vivo
[7] = target: T1, Mineralocorticoid receptor; test: Binding affinity to mineralocorticoid receptor (unknown origin)
[8] = Clearance in Wistar Han rat at 2 mg/kg, iv or 10 mg/kg, po; format: ADME, organism-based; settings: in vivo
[9] = Half-life in Wistar Han rat at 2 mg/kg, iv or 10 mg/kg, po; format: ADME, organism-based; settings: in vivo
[10] = Oral bioavailability in Wistar Han rat at 10 mg/kg; format: ADME, organism-based; settings: in vivo
[11] = Clearance in Wistar Han rat at 1 mg/kg, iv or 2 mg/kg, po; format: ADME, organism-based; settings: in vivo
[12] = Clearance in Sprague-Dawley rat at 1 mg/kg, iv or 2 mg/kg, po; format: ADME, organism-based; settings: in vivo
[13] = Half-life in Sprague-Dawley rat at 1 mg/kg, iv or 2 mg/kg, po; format: ADME, organism-based; settings: in vivo
[14] = Oral bioavailability in Sprague-Dawley rat at 2 mg/kg; format: ADME, organism-based; settings: in vivo
[15] = Metabolic stability in human liver microsomes assessed as parent compound remaining measured at 0.5 hrs; format: ADME, Microsome; settings: read-out: Stability
[16] = Drug metabolism in human liver microsomes assessed as oxidation of electron-rich indole core at 10 uM preincubated for 1 hr followed by NADPH addition by HRMS/MS fragmentation analysis; format: ADME, Microsome
[17] = Drug metabolism in rat liver microsomes assessed as oxidation of electron-rich indole core at 10 uM preincubated for 1 hr followed by NADPH addition by HRMS/MS fragmentation analysis; format: ADME, Microsome
[18] = Photostability of the compound under UV-irradiation; format: physicochemical

CCC(CO)(c1ccc(Cl)cc1)n1ccc2c(NS(C)(=O)=O)cc(C#N)cc21 (racemic)
pIC50 [1]: 4.66 | pIC50 (Glucocorticoid receptor): 5.98

CC[C@](CO)(c1ccc(Cl)cc1)n1ncc2c(NS(C)(=O)=O)cccc21
pIC50 [1]: 7.19 | Ratio IC50 (Homo sapiens): 29 | clearance [2]: 27 mL/min/kg | half-life [3]: 1.9 h | bioavailability [4]: 59% | pIC50 (Glucocorticoid receptor): 6.06

CC[C@@](c1ccc(C(F)(F)F)cc1)(C(C)O)n1ncc2c(NS(C)(=O)=O)cc(F)cc21 (single isomer, unassigned; diastereomer A) [listing 1 of 2 here]
Ratio IC50 (Homo sapiens): 640

CCC(CO)(c1ccc(Cl)cc1)n1ccc2c(NS(C)(=O)=O)cc(Br)cc21 (racemic)
pIC50 [1]: 6.25 | pIC50 (Glucocorticoid receptor): 6.69

CC[C@@](c1ccc(C(F)(F)F)cc1)(C(C)O)n1ncc2c(NS(C)(=O)=O)cc(F)cc21 (single isomer, unassigned; diastereomer A) [listing 2 of 2 here]
pIC50 [1]: 7.66 | t1/2 [5]: 1.8 h | F [6]: 36% | pIC50 (Glucocorticoid receptor): 4.99

CCC(CC)(c1ccc(Cl)cc1)n1ncc2c(NS(C)(=O)=O)cccc21
pIC50 [1]: 6.94

CC[C@](CO)(c1ccc(Cl)cc1)n1ccc2c(NS(C)(=O)=O)cc(F)cc21
pIC50 [1]: 6.94 | pIC50 [7]: 7.49 | clearance [8]: 34 mL/min/kg | half-life [9]: 1.6 h | bioavailability [10]: 30% | Ratio IC50 (Homo sapiens): 3.5 | pIC50 (Glucocorticoid receptor): 6.95

CC[C@@](c1ccc(C(F)(F)F)cc1)(C(C)O)n1ncc2c(NS(C)(=O)=O)cccc21 (some centres not stated)
clearance [11]: 14 mL/min/kg | pIC50 [1]: 7.70 | half-life [5]: 5.7 h | bioavailability ([6]; Wistar Han): 92% | Ratio IC50 (Homo sapiens): 1000 | clearance [12]: 14 mL/min/kg | half-life [13]: 5.7 h | bioavailability [14]: 92% | remaining at 0.5 h [15]: 52% | pIC50 (Glucocorticoid receptor): 5.78

CCC(CC)(c1ccc(Cl)cc1)c1cnc2c(NS(C)(=O)=O)cccn12
pIC50 [1]: 5.11

CC[C@](C(=O)NC)(c1ccc(Cl)cc1)n1ccc2c(NS(C)(=O)=O)cccc21
Drug metabolism [16]: Metabolite_Detected | Drug metabolism [17]: Metabolite_Detected | Stability [18]: Unstable

CC[C@@](c1ccc(C(F)(F)F)cc1)(C(C)O)n1ncc2c(NS(C)(=O)=O)cc(F)cc21 (single isomer, unassigned; diastereomer B) [listing 1 of 2 here]
Ratio IC50 (Homo sapiens): 19

CC[C@@](c1ccc(C(F)(F)F)cc1)(C(C)O)n1ncc2c(NS(C)(=O)=O)cc(F)cc21 (single isomer, unassigned; diastereomer B) [listing 2 of 2 here]
pIC50 [1]: 7.39 | t1/2 [5]: 5.2 h | F [6]: 92% | remaining at 0.5 h [15]: 84% | pIC50 (Glucocorticoid receptor): 5.40

CCC(CC)(c1ccc(Cl)cc1)n1ccc2c(NS(C)(=O)=O)cccc21
pIC50 [1]: 7.41

CCC(CC)(c1ccc(Cl)cc1)c1nnc2c(NS(C)(=O)=O)cccn12
pIC50 [1]: 5.23

CC[C@](CO)(c1ccc(Cl)cc1)n1ccc2c(NS(C)(=O)=O)cccc21
clearance [11]: 41 mL/min/kg | half-life [5]: 1.5 h
